# Assay results reported in patent US20260137754A1, “APPLICATION OF A COMBINATION DRUG IN THE TREATMENT OF PATHOGENIC BACTERIAL PERSISTENT INFECTIONS” (priority 2023, published 2026).
# Where “and” joins values, the source holds several entries; their conditions need not be identical. Equal entries are not always repeated. Where two headings read alike, the source gives them in different places.
# What was measured:
# [1] = tested on: wild-type E. coli BW25113; test: Minimum inhibitory concentration (MIC); assay type: cell-based, Escherichia coli
# [2] = tested on: wild-type E. coli BW25113; test: Survival / persistence level (CFU) of stationary-phase culture diluted 1:20 into fresh LB with antibiotic; assay type: cell-based, Escherichia coli; conditions: for persistence survival level / persistence rate: monotherapy 10 hours, kanamycin 3 MIC, ciprofloxacin 20 MIC, ampicillin 20 MIC, polymyxin B 3 MIC
# Protocol: (§1) The proportion of persisting cells in bacterial cultures typically reaches higher levels during the nutrient-depleted stationary phase. To investigate the persistence capacity of the model bacterium Escherichia coli(E. coli) against most bactericidal antibiotics, the standard BW25113 strain with E. coli K12 background was cultured at 37° C. in commercially available LB liquid medium until reaching the stationary phase. The culture was then inoculated at a 1:20 dilution into fresh LB liquid medium containing antibiotics at multiple dilutions of the minimum inhibitory concentration (MIC). Samples were collected after different treatment durations, and residual antibiotics were removed through two centrifugations. After tenfold serial dilution in physiological saline, the cultures were plated on LB agar plates without antibiotics. Survival colony-forming units (CFUs) were counted after two days of incubation, with initial CFU values before antibiotic addition serving as controls to calculate bacterial survival rates and persistence levels using conventional experimental methods. Testing for other bacteria followed the same protocol.
# The culture was then incubated at 37° C. with shaking at 160 rpm for 10 hours. […] Each measurement was obtained from at least three independent experiments, with error bars representing the mean±standard deviation.
# E. coli hipA7 strain = conditions: for survival rate / viability: monotherapy 10 hours, kanamycin 3 MIC, ciprofloxacin 20 MIC, ampicillin 20 MIC, polymyxin B 3 MIC, mitomycin C 3 MIC
# Protocol: as §1
# (§2) Each measurement was obtained from at least three independent experiments, with error bars representing the mean±standard deviation.
# as §2, §2
# [3] = cited from earlier work
# E. coli hipA7 cells [4] = test: Cell membrane damage, propidium iodide (PI) staining; assay type: cell-based, Escherichia coli; conditions: single drug
# Protocol: Samples were incubated at 37° C. with 160 rpm shaking for 8 hours.
# Parallel samples were treated with corresponding concentrations of individual drugs. Samples were collected at 0, 2, and 4 hours, with the addition of 5 μM PI dye 10 minutes prior to each collection time point. After washing with saline to remove antibiotics and extracellular dyes, cellular fluorescence intensity was analyzed by flow cytometry, with 100,000 cells analyzed per sample. The results from three independent experiments were basically the same. Representative data from one of the experiments were selected for plotting.
# E. coli hipA7 cells [5] = test: Membrane potential, DiSC3(5) dye, flow cytometry; assay type: cell-based, Escherichia coli; conditions: 0.9 μg/mL polymyxin B, 20 μg/mL kanamycin, combined or alone; up to 8 hours
# Protocol: As represented by the combination antibiotic containing 0.9 μg/mL polymyxin B and 20 μg/mL kanamycin, the cell membrane damage in hipA7 cultures during stress-induced antibiotic killing was assessed. […] Samples were incubated at 37° C. with 160 rpm shaking for 8 hours. During sampling, 2.5 μM DiSC3 (5) was added in the first 10 minutes of each time point, followed by washing to remove the drugs and unbound dye. Flow cytometry was used to measure fluorescence intensity, with 100,000 cells analyzed per sample. […] Representative data from one of the experiments were selected for plotting.
# [6] = Escherichia coli, BW25113, read-out: MIC
# [7] = clinical dosage guideline 2 mg/kg
Molecule,"MIC [1, 6]",persistence survival level / persistence rate [2],survival rate / viability (E. coli hipA7 strain),MIC [1],also measured
CC1(C)S[C@@H]2[C@H](NC(=O)[C@H](N)c3ccccc3)C(=O)N2[C@H]1C(=O)O [ampicillin],6 mg/L,0.001%,Approximately 10%,,
O=C(O)c1cn(C2CC2)c2cc(N3CCNCC3)c(F)cc2c1=O [ciprofloxacin],0.03 mg/L,0.001%,Approximately 10%,,
NC[C@H]1O[C@H](O[C@H]2[C@H](O)[C@@H](O[C@H]3O[C@H](CO)[C@@H](O)[C@H](N)[C@H]3O)[C@H](N)C[C@@H]2N)[C@H](O)[C@@H](O)[C@@H]1O [kanamycin],8 mg/L,0.001%,10%,,"peak serum concentration ([3]; clinical): 20 µg/mL and 18 to 20 µg/mL; viability decreased ([2]; kanamycin 24 μg/mL (3 MIC), 10 hours): 100,000 fold; survival rate, times higher than that of wild-type E. coli (E. coli hipA7 strain; 3 MIC kanamycin, 10 hours): 10,000 times"
CO[C@@]12[C@H](COC(N)=O)C3=C(C(=O)C(C)=C(N)C3=O)N1C[C@@H]1N[C@@H]12 [mitomycin C],,,,0.8 mg/L,
polymyxin,,,,,"average serum concentration [3, 7]: approximately 2.8 μg/mL; serum concentration range [3, 7]: 0.68 to 4.88 µg/mL"
polymyxin B,,0.001%,Approximately 10%,0.3 mg/L,PI fluorescence (membrane disruption) (E. coli hipA7 cells [4]; after 2 hours): majority of cells showed no increase in PI fluorescence; PI fluorescence (membrane disruption) (E. coli hipA7 cells [4]; after 4 hours): only a minimal number of cells exhibiting detectable signals; DiSC3(5) fluorescence signal (membrane potential) (E. coli hipA7 cells [5]): no significant enhancement of DiSC3(5) fluorescence signal
